Measured values taken from PMC6430037 (Heliyon, 2019).
Where a name gives a salt, the structure may show the parent alone.

What was measured:
mice [1] = settings: cited from earlier work
mice [2] = settings: cited from earlier work; remark: listed apart in the source
μ-opioid receptor = μ-opioid receptor (Rattus norvegicus, UniProt P33535); test: [3H]-DAMGO radioligand binding assay; settings: for inhibition at 300 µM: read-out: μ-opioid Binding inhibition (%) [300 μM]; for Ki: μ-opioid Ki, [3H]-DAMGO, rat forebrain membranes, Ki ± SEM, 2 determinations
μ-opioid receptor, sequence (P33535 whole entry): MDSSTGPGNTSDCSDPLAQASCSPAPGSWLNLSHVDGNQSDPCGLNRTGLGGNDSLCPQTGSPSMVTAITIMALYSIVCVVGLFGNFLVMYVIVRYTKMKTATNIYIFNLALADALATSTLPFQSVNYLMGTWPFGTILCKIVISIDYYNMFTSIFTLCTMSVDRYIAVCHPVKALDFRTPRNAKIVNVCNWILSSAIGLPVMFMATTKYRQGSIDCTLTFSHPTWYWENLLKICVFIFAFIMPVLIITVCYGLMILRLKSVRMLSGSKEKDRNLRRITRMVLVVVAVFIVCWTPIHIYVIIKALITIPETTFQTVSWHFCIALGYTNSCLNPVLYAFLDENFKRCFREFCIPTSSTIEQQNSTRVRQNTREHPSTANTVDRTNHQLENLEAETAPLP

5-HT1A receptor = target: T1, 5-HT1A receptor (Rattus norvegicus, UniProt P19327); test: [3H]-8-OH-DPAT radioligand binding assay; settings: for inhibition at 300 µM: read-out: 5-HT1A Binding Inhibition (%) [300 μM]
T1 sequence (P19327 1-422): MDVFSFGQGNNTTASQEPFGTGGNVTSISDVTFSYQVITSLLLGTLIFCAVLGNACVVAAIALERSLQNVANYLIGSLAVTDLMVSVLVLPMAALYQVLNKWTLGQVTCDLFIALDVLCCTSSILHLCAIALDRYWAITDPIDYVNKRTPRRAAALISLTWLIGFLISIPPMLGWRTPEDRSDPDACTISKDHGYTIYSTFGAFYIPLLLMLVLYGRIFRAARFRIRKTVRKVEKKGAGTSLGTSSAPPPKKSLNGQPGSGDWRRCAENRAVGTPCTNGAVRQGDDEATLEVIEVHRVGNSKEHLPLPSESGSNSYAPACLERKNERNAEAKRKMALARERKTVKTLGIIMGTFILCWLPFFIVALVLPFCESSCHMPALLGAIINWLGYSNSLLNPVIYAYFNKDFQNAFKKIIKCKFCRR

[3] = system: BDZ-bs of the GABAA receptor; test: [3H]-FNZ radioligand binding assay; settings: [3H]-FNZ displacement, compound at 300 μM, rat cerebral cortex membranes
mice [4] = test: Tail suspension test; format: in vivo; settings: 30 min before
mice [5] = test: Acetic acid induced writhing test; format: in vivo
mice [6] = test: Hot plate test; format: in vivo; settings: plate 52.5 °C
[7] = PAMPA-BBB permeability assay; format: in vitro ADME
mice [8] = test: Elevated plus-maze test; format: in vivo
mice [9] = test: Spontaneous locomotor activity; format: in vivo; settings: 10 and 30 mg/kg i.p., 5 min counts
Cell viability assay = format: cell-based, human; settings: human, SH-SY5Y cells
rats = settings: cited from earlier work
[10] = 10 mg/kg i.p., 30 min before, 5 min session

Structure (SMILES)	inhibition at 300 µM (μ-opioid receptor) [%]	Ki (5-HT1A receptor) [µM]	inhibition at 300 µM (5-HT1A receptor) [%]	BDZ-bs Binding inhibition (%) [300 μM] [3]	Ki (μ-opioid receptor) [µM]	further results
O=C(/C=C/c1c(Cl)cccc1Cl)c1ccc(O)cc1O [2,6-dichloro-2′,4′-dihydroxychalcone]	–	–	–	–	–	head-twitches in the 5-HT induced head-twitch test (mice [1]): significantly increased head-twitches; lethality in the yohimbine-induced mortality test (mice [2]): enhanced the mouse lethality
O=C(/C=C/c1ccccc1)c1ccccc1O [Compound 2, (2E)-1-(2-hydroxyphenyl)-3-phenyl-2-propen-1-one]	20 to 40	71.4 ± 1.4	60 to 90	+++ (inhibition 60–90% (+++))	–	–
COc1ccc(C(=O)/C=C/c2ccccc2)c(O)c1 [Compound 3, (2E)-1-(2-hydroxy-4-methoxyphenyl)-3-phenyl-2-propen-1-one]	20 to 40	–	20 to 40	+++ (inhibition 60–90% (+++))	–	–
COc1ccc(O)c(C(=O)/C=C/c2ccccc2)c1 [Compound 4, (2E)-1-(2-hydroxy-5-methoxyphenyl)-3-phenyl-2-propen-1-one]	60 to 90	303 ± 1.2	60 to 90	+++ (inhibition 60–90% (+++))	54.6 ± 2.9	–
COc1cccc(O)c1C(=O)/C=C/c1ccccc1 [Compound 5, (2E)-1-(2-hydroxy-6-methoxyphenyl)-3-phenyl-2-propen-1-one]	60 to 90	13.3 ± 0.3	> 90	- (inhibition <20% (-))	26.7 ± 1.6	immobility time vs VEH (mice [4]; 10 mg/kg i.p.): not active
O=C(/C=C/c1ccccc1)c1cc(Cl)ccc1O [Compound 6, (2E)-1-(5-chloro-2-hydroxyphenyl)-3-phenyl-2-propen-1-one]	60 to 90	–	40 to 60	++ (inhibition 40–60% (++))	19.4 ± 3.5	number of writhes vs VEH (mice [5]; 10 mg/kg i.p., acetic acid 0.75%): significantly reduced; reaction (latency) time against thermal stimulus vs VEH (mice [6]; 30 mg/kg i.p.): Only chalcone 12 at 30 mg/kg caused significant increases
O=C(/C=C/c1ccccc1)c1cc(F)ccc1O [Compound 7, (2E)-1-(5-fluoro-2-hydroxyphenyl)-3-phenyl-2-propen-1-one]	60 to 90	129 ± 2.7	60 to 90	++ (inhibition 40–60% (++))	29.5 ± 6.6	–
O=C(/C=C/c1ccccc1)c1cc(Br)ccc1O [Compound 8, (2E)-1-(5-bromo-2-hydroxyphenyl)-3-phenyl-2-propen-1-one]	20 to 40	–	40 to 60	++ (inhibition 40–60% (++))	–	–
Cc1ccc(O)c(C(=O)/C=C/c2ccccc2)c1 [Compound 9, (2E)-1-(2-hydroxy-5-methylphenyl)-3-phenyl-2-propen-1-one]	60 to 90	–	40 to 60	+++ (inhibition 60–90% (+++))	46.3 ± 1.6	Papp at 16 h, 50 µM ([7]; PAMPA, pH 7.4): 25.1 ×10⁻⁶ cm/s; BBB penetration estimation Prediction ([7]; PAMPA-BBB binning by -logPe): CNS+ (CNS+, -logPe < 5.6, high permeability); percentage of open arm entries vs VEH (mice [8]; [10]): significantly increased; percentage of time spent in open arms vs VEH (mice [8]; [10]): significantly increased; number of total arm entries vs VEH (mice [8]; 30 mg/kg i.p.): significantly increased; spontaneous locomotor activity vs VEH (mice [9]): did not show significant differences; viability at 48 h, 20 µM (Cell viability assay): 88.5%
O=C(/C=C/c1ccccc1)c1cc(Br)cc(Br)c1O [Compound 10, (2E)-1-(3,5-dibromo-2-hydroxyphenyl)-3-phenyl-2-propen-1-one]	60 to 90	1220 ± 469	60 to 90	- (inhibition <20% (-))	32.5 ± 9.3	–
Cc1cc(O)c(C(=O)/C=C/c2ccccc2)cc1C [Compound 11, (2E)-1-(4,5-dimethyl-2-hydroxyphenyl)-3-phenyl-2-propen-1-one]	60 to 90	164 ± 1.47	60 to 90	+ (inhibition 20–40% (+))	29.1 ± 8.5	–
COc1cc(C(=O)/C=C/c2ccccc2)ccc1O [Compound 13, (2E)-1-(4-hydroxy-3-methoxyphenyl)-3-phenyl-2-propen-1-one]	40 to 60	287.8 ± 1.9	40 to 60	++ (inhibition 40–60% (++))	–	–
Nc1ccc(C(=O)/C=C/c2ccccc2)cc1 [Compound 14, (2E)-1-(4-aminophenyl)-3-phenyl-2-propen-1-one]	60 to 90	–	40 to 60	+++ (inhibition 60–90% (+++))	59.4 ± 1.5	–
Cc1ccc(C(=O)/C=C/c2ccccc2)cc1 [Compound 15, (2E)-1-(4-methylphenyl)-3-phenyl-2-propen-1-one]	20 to 40	–	40 to 60	+++ (inhibition 60–90% (+++))	–	–
O=C(/C=C/c1cccc([N+](=O)[O-])c1)c1ccccc1 [Compound 16, (2E)-3-(3-nitrophenyl)-1-phenyl-2-propen-1-one]	< 20	–	40 to 60	++++ (inhibition >90% (++++))	–	number of total arm entries vs VEH (mice [8]; [10]): significantly increased
O=C(/C=C/c1ccc([N+](=O)[O-])cc1)c1ccccc1 [Compound 17, (2E)-3-(4-nitrophenyl)-1-phenyl-2-propen-1-one]	20 to 40	–	< 20	- (inhibition <20% (-))	–	–
O=C(/C=C/c1cccc(Cl)c1)c1ccccc1 [Compound 18, (2E)-3-(3-chlorophenyl)-1-phenyl-2-propen-1-one]	20 to 40	–	20 to 40	++ (inhibition 40–60% (++))	–	–
O=C(/C=C/c1ccc(Cl)cc1)c1ccccc1 [Compound 19, (2E)-3-(4-chlorophenyl)-1-phenyl-2-propen-1-one]	20 to 40	–	< 20	+ (inhibition 20–40% (+))	–	–
CN(C)c1ccc(/C=C/C(=O)c2ccccc2)cc1 [Compound 20, (2E)-3-[4-(dimethylamino)phenyl]-1-phenyl-2-propen-1-one]	60 to 90	59.6 ± 1.5	60 to 90	- (inhibition <20% (-))	23.8 ± 3.1	–
Nc1ccc(C(=O)/C=C/c2cccc([N+](=O)[O-])c2)cc1 [Compound 21, (2E)-1-(4-aminophenyl)-3-(3-nitrophenyl)-2-propen-1-one]	40 to 60	473 ± 7.3	60 to 90	–	–	–
CN(C)CCCN1c2ccccc2CCc2ccccc21 [IMP, imipramine hydrochloride, reference compound]	–	–	–	–	–	immobility time vs VEH (mice [4]; 30 mg/kg i.p.): significantly reduced
O=C(/C=C/c1ccc(O)c(O)c1)c1ccc(O)cc1O [butein]	–	–	–	–	–	effect in the plus-maze test (rats): anxiolytic-like effect
CN1CC[C@]23c4c5ccc(O)c4O[C@H]2[C@@H](O)C=C[C@H]3[C@H]1C5 [morphine, Morphine hydrochloride, reference compound]	–	–	–	–	–	abdominal cramps (mice [5]; 6 mg/kg i.p.): no abdominal cramps; latency time (mice [6]; 6 mg/kg i.p., 45 s cut-off): 42.6 s
